According to the supplement of paper PMC11061612:

How the values were obtained:
[1] = system: MFE-280 (Endometrial Carcinoma); experiment: combination Emax (second highest fraction inhibited in the dose matrix, 72 h); higher = more inhibition; extreme values may be limits of the assay
Outline: (§1)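 Cell lines in DMEM/F12 or RPMI with 10% FBS were plated in 1536-well plates, held 24 hours at 37°C, 5% CO2, then given two-drug dose matrices for 72 hours (DMSO typically 0.2%). Viability was read by CellTiter-Glo 2.0 luminescence and scaled as inhibition from 0 (vehicle wells) to 1 (blank wells). Combination Emax is the second-highest inhibition in the matrix; Bliss excess is observed combination effect minus expected EA + EB − EA·EB, EA and EB being single-agent effects.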

[2] = system: NCI-H23 (Lung Adenocarcinoma); experiment: as above
Outline: as §1

[3] = system: REH (B-Lymphoblastic Leukemia); experiment: as above
Outline: as §1

[4] = system: PSN1 (Pancreatic Carcinoma); experiment: as above
Outline: as §1

[5] = system: IST-MES1 (Mesothelioma); experiment: as above
Outline: as §1

[6] = system: OPM-2 (Plasma Cell Myeloma); experiment: as above
Outline: as §1

[7] = system: SHP-77 (Small Cell Lung Carcinoma); experiment: as above
Outline: as §1

[8] = system: RERF-LC-Sq1 (Squamous Cell Lung Carcinoma); experiment: as above
Outline: as §1

[9] = system: SU-DHL-10 (B-Cell Non-Hodgkin's Lymphoma); experiment: as above
Outline: as §1

[10] = system: WM278 (Melanoma); experiment: as above
Outline: as §1

[11] = system: COLO-680N (Esophageal Squamous Cell Carcinoma); experiment: as above
Outline: as §1

[12] = system: GB-1 (Glioblastoma); experiment: as above
Outline: as §1

[13] = system: PC-3_[JPC-3] (Lung Adenocarcinoma); experiment: as above
Outline: as §1

[14] = system: PANC-03-27 (Pancreatic Carcinoma); experiment: as above
Outline: as §1

[15] = system: NCI-H2342 (Lung Adenocarcinoma); experiment: as above
Outline: as §1

[16] = system: NCI-H446 (Small Cell Lung Carcinoma); experiment: as above
Outline: as §1

[17] = system: FADU (Head and Neck Carcinoma); experiment: as above
Outline: as §1

[18] = system: CAL-120 (Breast Carcinoma); experiment: Bliss excess, mean over the matrix (fraction); higher = more synergy
Outline: as §1

[19] = system: A2058 (Melanoma); experiment: as above
Outline: as §1

[20] = system: LB996-RCC (Kidney Carcinoma); experiment: as above
Outline: as §1
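For Bliss excess, mean over the matrix in this document: after 72 h of two-drug dosing.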

SMILES	combination Emax [1]	combination Emax [2]	combination Emax [3]	combination Emax [4]	combination Emax [5]	combination Emax [6]	combination Emax [7]	combination Emax [8]	combination Emax [9]	combination Emax [10]	combination Emax [11]	combination Emax [12]	combination Emax [13]	combination Emax [14]	combination Emax [15]	combination Emax [16]	combination Emax [17]	Bliss excess [18]	Bliss excess [19]	Bliss excess [20]
Cc1cc2ncnn2cc1Nc1ncc2c(n1)n(C1CCOCC1)c(=O)n2C [AZD7648] + C=CCn1c(=O)c2cnc(Nc3ccc(N4CCN(C)CC4)cc3)nc2n1-c1cccc(C(C)(C)O)n1 [AZD1775] (first compound max 10 µM, partner max 1 µM)	0.355	0.786	0.848	0.557	0.402	0.864	0.432	0.672	0.978	0.254	0.353	0.439	0.483	0.878	0.255	0.839	0.546	0.0463	0.0194	-0.0252
Cc1cc2ncnn2cc1Nc1ncc2c(n1)n(C1CCOCC1)c(=O)n2C [AZD7648] + CCN(CCO)CCCOc1ccc2c(Nc3cc(CC(=O)Nc4cccc(F)c4)[nH]n3)ncnc2c1 [AZD2811] (first compound max 10 µM, 7x7, partner max 1 µM)	0.377	0.228	0.51	0.397	0.31	0.605	0.258	0.261	0.899	0.157	0.236	0.166	0.319	0.334	0.324	0.834	0.263	-0.0528	0.01	-0.0098
Cc1cc2ncnn2cc1Nc1ncc2c(n1)n(C1CCOCC1)c(=O)n2C [AZD7648] + CN(C)CCCOc1ccc(-c2ccc3ncc4c(c3c2)n(C2CCOCC2)c(=O)n4C)cn1 [AZD0156] (first compound max 10 µM, 7x7, partner max 1 µM)	0.359	0.103	0.258	0.38	0.239	0.556	0.223	0.197	0.302	0.188	0.188	0.19	0.31	0.318	0.249	0.309	0.111	-0.0197	-0.001	-0.0542
Cc1cc2ncnn2cc1Nc1ncc2c(n1)n(C1CCOCC1)c(=O)n2C [AZD7648] + C[C@@H]1COCCN1C2=NC(=NC(=C2)C3(CC3)[S@](=N)(=O)C)C4=C5C=CNC5=NC=C4 [AZD6738] (first compound max 10 µM, 7x7, partner max 10 µM)	0.337	0.603	0.771	0.418	0.313	0.822	0.493	0.804	0.878	0.33	0.265	0.544	0.426	0.824	0.24	0.786	0.695	0.0192	0.024	-0.0199
Cc1cc2ncnn2cc1Nc1ncc2c(n1)n(C1CCOCC1)c(=O)n2C [AZD7648] + O=C(c1cc(Cc2n[nH]c(=O)c3ccccc23)ccc1F)N1CCN(C(=O)C2CC2)CC1 [Olaparib] (first compound max 10 µM, 7x7, partner max 10 µM)	0.434	0.213	0.187	0.31	0.234	0.294	0.233	0.314	0.16	0.0954	0.101	0.23	0.19	0.185	0.12	0.273	0.237	-0.0322	-0.0319	-0.0152
NC1(C(=O)N[C@@H](CCO)c2ccc(Cl)cc2)CCN(c2ncnc3[nH]ccc23)CC1 [Capivasertib] + CC(=O)c1c(C)c2cnc(Nc3ccc(N4CCNCC4)cn3)nc2n(C2CCCC2)c1=O [Palbociclib] (first compound max 10 µM, 7x7, partner max 10 µM)	0.555	0.512	0.609	0.484	0.303	0.987	0.499	0.873	1	0.402	0.197	0.476	0.398	0.283	0.327	0.719	0.527	-0.0221	-0.0001	0.0312
